In USRE38460E1 (priority 1994, dated 2004):
Where two headings read alike, the source gives them in different places.

Tests used:
[1] = molecular target: T1, butyrylcholinesterase (BuChE) (Rattus norvegicus, UniProt Q9JKC1); test: In-vitro anticholinesterase effect, colorimetric method (Ellman), BuChE from rat's serum; assay type: biochemical; conditions: for inhibition effect on butyrylcholinesterase (pseudo enzyme) compared with huperzine A: see Tables 1, 2 and 6
T1 construct: from tissue; host or cells: rat serum
Procedure: (§1) In the present invention a calorimetric method reported by Ellman was used to determine the effect of inhibition of the pharmaceutical on enzyme activity. The total volume of the solution of the enzyme activity reaction was 4 ml, which contained 0.3 mmol/L of acetylcholin iodide (acetylcholinesterase substrate), or 0.4 mmol/L of butyrylcholin iodide (butyrylcholinesterase substrate), 1 ml of the buffer solution of 25 mmol/L of phosphate of pH 7.4, and water to make up to 4 ml (including the amount of the enzyme solution and the testing reagent added afterwards). After the solution was kept at 37° C. for 5 minutes, 0.1-0.2 ml of enzyme solution (red cell membrane or serum of rat) was added, or 0.1-0.3 ml of the testing reagent was added at the same time. The solution was kept at the same temperature for another 8 minutes. Then 1 ml of 3% of sodium lauryl sulphate was added to terminate the reaction. Finally 1 ml of 0.2% 5,5-dithio-2,2′-nitro-benzoic acid solution was added for developing.
(§2) AChE taken from rat's red cell membrane. BuChE taken from rat's serum.
(§3) AChE taken from homogenate of rat's cortex. BuChE taken from rat's serum.

acetylcholinesterase = molecular target: T2, acetylcholinesterase (Rattus norvegicus, UniProt P37136); test: Study on kinetics of enzyme; assay type: biochemical
T2 sequence (P37136 32-614): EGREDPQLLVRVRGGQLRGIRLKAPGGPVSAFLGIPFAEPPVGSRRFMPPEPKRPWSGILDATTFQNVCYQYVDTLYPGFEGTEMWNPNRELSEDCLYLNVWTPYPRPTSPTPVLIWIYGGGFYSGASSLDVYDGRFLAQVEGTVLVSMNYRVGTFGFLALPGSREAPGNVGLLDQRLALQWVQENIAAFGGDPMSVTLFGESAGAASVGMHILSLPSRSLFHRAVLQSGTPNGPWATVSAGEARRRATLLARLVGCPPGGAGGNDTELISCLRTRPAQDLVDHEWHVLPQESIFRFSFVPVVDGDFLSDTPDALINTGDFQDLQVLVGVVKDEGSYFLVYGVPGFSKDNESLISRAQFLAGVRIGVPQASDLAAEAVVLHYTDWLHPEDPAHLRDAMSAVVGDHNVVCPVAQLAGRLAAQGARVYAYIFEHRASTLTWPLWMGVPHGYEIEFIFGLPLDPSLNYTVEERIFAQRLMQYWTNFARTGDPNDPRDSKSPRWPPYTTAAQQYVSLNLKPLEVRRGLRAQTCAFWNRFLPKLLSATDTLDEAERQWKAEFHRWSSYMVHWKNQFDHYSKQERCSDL
Procedure: In the present invention a calorimetric method reported by Ellman was used to determine the effect of inhibition of the pharmaceutical on enzyme activity. The total volume of the solution of the enzyme activity reaction was 4 ml, which contained 0.3 mmol/L of acetylcholin iodide (acetylcholinesterase substrate), or 0.4 mmol/L of butyrylcholin iodide (butyrylcholinesterase substrate), 1 ml of the buffer solution of 25 mmol/L of phosphate of pH 7.4, and water to make up to 4 ml (including the amount of the enzyme solution and the testing reagent added afterwards). After the solution was kept at 37° C. for 5 minutes, 0.1-0.2 ml of enzyme solution (red cell membrane or serum of rat) was added, or 0.1-0.3 ml of the testing reagent was added at the same time. The solution was kept at the same temperature for another 8 minutes. Then 1 ml of 3% of sodium lauryl sulphate was added to terminate the reaction. Finally 1 ml of 0.2% 5,5-dithio-2,2′-nitro-benzoic acid solution was added for developing. “721” spectrophotometer was used to determine the density of light at 440 nm. A solution without addition of the pharmaceutical to inhibit the enzyme activity was used as a control (100%).

[2] = tested on: memory impairment caused by scopolamine; test: 8-arm maze spatial distinction operation of rat, memory impairment caused by scopolamine; assay type: in vivo; conditions: for effect on improving memory (in words): 8-arm maze spatial distinction operation of rat, compared with compound of formula (I); for No. of mistakes in operation before reaching the standard, reference memory (X + SEM) / No. of mistakes in operation before reaching the standard, working memory (X + SEM): rats, 8-arm maze
BuChE = molecular target: T3, BuChE (Rattus norvegicus, UniProt Q9JKC1); test: In-vitro anticholinesterase effect (Table 6), BuChE; assay type: biochemical; conditions: read-out: inhibition activity BuChE at 10(μM)
T3 construct: from tissue; host or cells: rat serum
Procedure: as §1

[3] = molecular target: T4, acetylcholinesterase (AChE) (Rattus norvegicus, UniProt P37136); test: biochemical; assay type: biochemical; conditions: for IC50 / IC50 ratio BuChE/AChE: Table 1; for IC50: AChE taken from rat's red cell membrane; for IC50 ratio BuChE/AChE: red cell membrane AChE, serum BuChE; for inhibition effect on acetylcholinesterase (in words) / inhibition effect on acetylcholinesterase compared with huperzine A / inhibition effect on acetylcholinesterase compared with physostigmine and galanthamine: see Tables 1, 2 and 6
T4 construct: from tissue; host or cells: rat red cell membrane
Procedure: as §1, §2
T4 sequence (P37136 other isoform, or with tags, fused parts or gaps): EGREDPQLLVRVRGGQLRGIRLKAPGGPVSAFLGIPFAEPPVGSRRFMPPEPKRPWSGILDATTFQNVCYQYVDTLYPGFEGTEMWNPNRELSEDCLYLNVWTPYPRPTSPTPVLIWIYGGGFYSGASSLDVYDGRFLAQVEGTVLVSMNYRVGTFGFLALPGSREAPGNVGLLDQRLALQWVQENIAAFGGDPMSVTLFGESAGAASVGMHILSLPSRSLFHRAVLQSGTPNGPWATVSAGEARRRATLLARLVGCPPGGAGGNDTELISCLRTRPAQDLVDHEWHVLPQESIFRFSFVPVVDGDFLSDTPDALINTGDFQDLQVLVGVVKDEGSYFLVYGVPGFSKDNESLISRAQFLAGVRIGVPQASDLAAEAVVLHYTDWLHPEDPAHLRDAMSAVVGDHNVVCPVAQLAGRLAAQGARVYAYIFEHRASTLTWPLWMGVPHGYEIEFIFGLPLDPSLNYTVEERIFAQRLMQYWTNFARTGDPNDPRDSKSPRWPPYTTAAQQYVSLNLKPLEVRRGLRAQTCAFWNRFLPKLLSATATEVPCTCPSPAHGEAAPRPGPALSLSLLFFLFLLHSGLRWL

[4] = molecular target: T5, acetylcholinesterase (AChE) (Rattus norvegicus, UniProt P37136); test: biochemical; assay type: biochemical; conditions: Table 2; for IC50: AChE taken from homogenate of rat's cortex; for IC50 ratio BuChE/AChE: cortex AChE, serum BuChE
T5 construct: from tissue; host or cells: homogenate of rat cortex
T5 sequence (P37136 32-614): T2 sequence (P37136 32-614)
Procedure: as §1, §3

AChE = molecular target: T6, AChE (Rattus norvegicus, UniProt P37136); test: biochemical; conditions: Table 6
T6 construct: 0.1-0.2 ml of enzyme solution (red cell membrane or serum of rat) was added; from tissue; host or cells: rat tissue
T6 sequence (P37136 32-614): T2 sequence (P37136 32-614)
Procedure: as §1

[5] = tested on: memory impairment caused by scopolamine; test: Mouse passive escape operation (platform jumping method), memory impairment caused by scopolamine; assay type: in vivo, mice; conditions: for delitescence of get-down (sec ± SEM): mice, tested after 24 hours; for effect on improving memory (in words): mouse passive escape operation, compared with compound of formula (I)
[6] = Critical toxicity on mice (Bliss method); assay type: in vivo; conditions: mouse, in vivo, po, mice, p.o., Bliss method, mortality within 7 days
Procedure: (§4) Test of each pharmaceutical was carried out using 4-5 dosage group.
(§5) Mortality within 7 days was observed.

mice = test: Critical toxicity on mice (Bliss method); assay type: in vivo; conditions: for LD50 relative to that of the compound of formula (I): mice; for critical toxicity compared with compound (I): mouse, in vivo
Procedure: as §4, §5

[7] = scopolamine + derivative 0.124 + 0.2 mg/kg ip + po
[8] = scopolamine + derivative 2 + 0.2 mg/kg ip + po
[9] = scopolamine + derivative 2 + 0.4 mg/kg ip + po
[10] = first of two columns headed LD50, read-out: LD50 (first column) (95% confidence limit)
[11] = second of two columns headed LD50, read-out: LD50 (second column) (95% confidence limit)
[12] = scopolamine + derivative 0.2 ± 0.1 mg/kg ip + po
[13] = scopolamine + derivative 0.2 ± 0.3 mg/kg ip + po

T1 sequence (Q9JKC1 24-597): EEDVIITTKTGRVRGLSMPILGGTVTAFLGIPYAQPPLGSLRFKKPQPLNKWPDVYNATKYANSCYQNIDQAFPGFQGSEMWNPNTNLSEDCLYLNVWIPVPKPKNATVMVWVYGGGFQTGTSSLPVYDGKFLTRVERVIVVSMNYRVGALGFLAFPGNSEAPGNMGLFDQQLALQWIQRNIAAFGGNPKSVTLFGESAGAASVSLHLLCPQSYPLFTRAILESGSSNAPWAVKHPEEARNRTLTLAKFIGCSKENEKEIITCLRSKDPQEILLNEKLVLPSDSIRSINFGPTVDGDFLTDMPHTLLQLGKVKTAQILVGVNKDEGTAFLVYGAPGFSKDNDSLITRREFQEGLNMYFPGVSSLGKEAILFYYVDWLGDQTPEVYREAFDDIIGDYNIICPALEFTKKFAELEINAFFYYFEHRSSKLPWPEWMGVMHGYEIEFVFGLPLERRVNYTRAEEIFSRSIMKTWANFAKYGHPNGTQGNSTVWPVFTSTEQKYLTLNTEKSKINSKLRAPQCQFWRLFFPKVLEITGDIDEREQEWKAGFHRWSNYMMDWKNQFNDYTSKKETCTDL
T3 sequence (Q9JKC1 24-597): as above

| Structure (SMILES) | IC50 [1] [µM] | inhibition effect on butyrylcholinesterase (pseudo enzyme) compared with huperzine A [1] | combination with acetylcholinesterase (reversibility) (acetylcholinesterase) | effect on improving memory (in words) [2] | inhibitor of acetylcholinesterase (summary in words) [3] | IC50 [3] [µM] | IC50 ratio BuChE/AChE [3] | inhibition effect on acetylcholinesterase (in words) [3] | inhibition effect on acetylcholinesterase compared with huperzine A [3] | inhibition effect on acetylcholinesterase compared with physostigmine and galanthamine [3] | IC50 [4] [µM] | IC50 ratio BuChE/AChE [4] | delitescence of get-down (sec ± SEM) [5, 8] [s] | delitescence of get-down (sec ± SEM) [5, 9] [s] | effect on improving memory (in words) [5] | LD50 [6, 10] [mg/kg] | LD50 [6, 11] [mg/kg] | LD50 relative to that of the compound of formula (I) (mice) | critical toxicity compared with compound (I) (mice) | other results |
| --- | --- | --- | --- | --- | --- | --- | --- | --- | --- | --- | --- | --- | --- | --- | --- | --- | --- | --- | --- | --- |
| CC=C1C2C=C(C)CC1(N=Cc1ccc(OC)c(O)c1)c1ccc(=O)[nH]c1C2 (stereo not drawn) [derivative No. 18] | 107 | weaker inhibition effect | reversible | very strong effect | highly effective selective inhibitors | 0.151 | 709.9 | remarkable inhibition effect | slightly weaker | apparently stronger | 0.151 | 708.2 | 67.7 ± 11.7 | 48.7 ± 6.9 | very strong effect | 9.6 | 14.4 | ⅓ | lower critical toxicity | No. of mistakes in operation before reaching the standard, reference memory (X + SEM) [2, 7]: 0.67; No. of mistakes in operation before reaching the standard, working memory (X + SEM) [2, 7]: 0.33; inhibition at 10 µM (BuChE): 0%; BuChE/AChE (AChE): >500; inhibition at 1 µM (AChE; 1 μM): 90.2%; IC50 (AChE; read-out: inhibition activity AChE IC50): 0.084 µM; delitescence of get-down (sec ± SEM) ([5]; scopolamine + derivative 3 + 0.3 mg/kg ip + po): 64.0 ± 9.8 s |
| CC=C1C2C=C(C)CC1(N=Cc1c(O)cc(OC)cc1OC)c1ccc(=O)[nH]c1C2 (stereo not drawn) [derivative No. 19] | 105 | weaker inhibition effect | reversible | very strong effect | highly effective selective inhibitors | 0.145 | 722.1 | remarkable inhibition effect | slightly weaker | apparently stronger | 0.144 | 724.6 | 71.6 ± 14.5 | 92.2 ± 15.5 | very strong effect | 11.1 | 14.1 | ⅓ | lower critical toxicity | No. of mistakes in operation before reaching the standard, reference memory (X + SEM) [2, 12]: 1.33 ± 0.21; No. of mistakes in operation before reaching the standard, working memory (X + SEM) [2, 12]: 1.33; No. of mistakes in operation before reaching the standard, reference memory (X + SEM) [2, 13]: 0.33; No. of mistakes in operation before reaching the standard, working memory (X + SEM) [2, 13]: 0.17; delitescence of get-down (sec ± SEM) ([5]; scopolamine + derivative 2 + 0.1 mg/kg ip + po): 48.9 ± 12.6 s; delitescence of get-down (sec ± SEM) ([5]; scopolamine + derivative 2 + 0.3 mg/kg ip + po): 99.8 ± 16.4 s |
